In ChEMBL document CHEMBL1142246, “Azetidine-2,4-diones (4-oxo-beta-lactams) as scaffolds for designing elastase inhibitors” (J Med Chem, 2008):
Calls of active or inactive are those of the source. The calls are words filed in the database; no cut-off is given here.

Biological target: not listed separately
Assay: (§1) Inhibition of pig pancreatic elastase
Set-up: species or system Sus scrofa

Structure (SMILES) | Ki [µM]
CCC1(CC)C(=O)N(c2ccccc2)C1=O | 10.2
CCC1(CC)C(=O)N(c2ccc(OC)cc2)C1=O | 9.81
CCC1(CC)C(=O)N(c2ccc(C#N)cc2)C1=O | 6.02
CCC1(CC)C(=O)N(c2ccc(C)cc2)C1=O | 7.46
CCC1(CC)C(=O)N(c2ccc(Cl)cc2)C1=O | 8.47
CC1(C)C(=O)N(Cc2ccccc2)C1=O | 184
CC1(C)C(=O)N(c2ccc(Cl)cc2)C1=O | 10

Species: Sus scrofa
Assay: as §1

Structure (SMILES) | Activity
CCC1(CC)C(=O)N(Cc2ccccc2)C1=O | inactive
CCOC(=O)CN1C(=O)C(CC)(CC)C1=O | inactive
